Source: patent publication US8937041B2, “Macrocyclic hepatitis C serine protease inhibitors” (AbbVie, Inc., priority 2010, dated 2015)

How the values were obtained:
HLM stability = type: in vitro ADME
[1] = system: HCV genotype 1a replicon (1a-H77); experiment: microbe, parasite or virus in culture; type: cell-based; settings: Hepatitis C virus, read-out: EC50 in a replicon cell line assay in a 1a-H77 background
[2] = system: HCV genotype 1b replicon (1b-Con-1); experiment: microbe, parasite or virus in culture; type: cell-based; settings: Hepatitis C virus, read-out: EC50 in a replicon cell line assay in a 1b-con1 background
[3] = molecular target: recombinant HCV NS3 protease, genotype 1b (Hepatitis C virus genotype 1b, UniProt Q9WMX2); experiment: biochemical; settings: genotype 1b NS3 protease; read-out: IC50 in a 1b enzyme assay
[4] = molecular target: recombinant HCV NS3 protease, genotype 1a (Hepatitis C virus genotype 1a, UniProt P27958); experiment: biochemical; settings: genotype 1a NS3 protease; read-out: IC50 in a 1a enzyme assay
Chain of recombinant HCV NS3 protease, genotype 1a (P27958 1027-1657, other chains not shown): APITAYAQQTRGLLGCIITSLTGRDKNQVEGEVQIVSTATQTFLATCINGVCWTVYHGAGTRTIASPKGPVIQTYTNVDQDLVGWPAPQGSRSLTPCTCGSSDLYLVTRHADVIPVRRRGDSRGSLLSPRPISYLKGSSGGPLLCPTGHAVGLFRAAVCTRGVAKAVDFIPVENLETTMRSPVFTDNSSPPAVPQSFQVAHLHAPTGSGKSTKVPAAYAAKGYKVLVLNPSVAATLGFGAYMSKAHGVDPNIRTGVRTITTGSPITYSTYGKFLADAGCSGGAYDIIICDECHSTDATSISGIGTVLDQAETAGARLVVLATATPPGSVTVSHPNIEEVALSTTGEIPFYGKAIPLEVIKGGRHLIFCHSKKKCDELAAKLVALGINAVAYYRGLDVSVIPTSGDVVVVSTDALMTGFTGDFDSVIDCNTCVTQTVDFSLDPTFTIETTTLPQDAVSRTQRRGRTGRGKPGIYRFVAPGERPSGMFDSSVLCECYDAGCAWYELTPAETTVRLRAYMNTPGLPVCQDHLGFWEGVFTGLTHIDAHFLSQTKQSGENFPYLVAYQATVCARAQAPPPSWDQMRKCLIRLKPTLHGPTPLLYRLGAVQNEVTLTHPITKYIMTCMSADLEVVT

Chain of recombinant HCV NS3 protease, genotype 1b (Q9WMX2 1027-1657, other chains not shown): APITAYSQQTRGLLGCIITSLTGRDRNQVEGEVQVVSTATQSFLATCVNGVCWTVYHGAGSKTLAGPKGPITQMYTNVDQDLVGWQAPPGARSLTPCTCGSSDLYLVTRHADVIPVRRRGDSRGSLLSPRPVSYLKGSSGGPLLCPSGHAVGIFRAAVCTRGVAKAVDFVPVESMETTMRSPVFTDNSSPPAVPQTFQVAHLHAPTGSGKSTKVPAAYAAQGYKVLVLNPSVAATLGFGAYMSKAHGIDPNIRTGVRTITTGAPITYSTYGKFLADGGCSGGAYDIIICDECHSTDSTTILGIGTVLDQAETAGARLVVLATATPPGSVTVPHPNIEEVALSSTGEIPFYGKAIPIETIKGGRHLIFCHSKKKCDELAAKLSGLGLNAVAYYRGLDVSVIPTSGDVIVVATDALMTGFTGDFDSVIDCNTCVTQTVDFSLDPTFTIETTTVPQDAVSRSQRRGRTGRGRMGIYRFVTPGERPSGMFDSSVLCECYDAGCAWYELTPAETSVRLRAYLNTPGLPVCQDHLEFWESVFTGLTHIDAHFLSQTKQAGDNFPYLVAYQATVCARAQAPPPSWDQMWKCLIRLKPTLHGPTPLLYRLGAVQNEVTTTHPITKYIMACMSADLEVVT

| SMILES | HLM stability value (HLM stability) [µL/min/mg] | EC50 [1] [nM] | EC50 [2] [nM] | IC50 [3] [nM] | IC50 [4] [nM] |
| --- | --- | --- | --- | --- | --- |
| CCc1nc2ccccc2nc1O[C@@H]1C[C@H]2C(=O)N[C@]3(C(=O)NS(=O)(=O)C4CC4)C[C@H]3CC(F)(F)CCCCC[C@H](NC(=O)C(C)(C)C)C(=O)N2C1 [Example 12, (2R,6S,13aS,14aR,16a5)-N-(cyclopropylsulfonyl)-2-(3-ethylquinoxalin-2-yloxy)-12,12-difluoro-5,16-dioxo-6-pivalamidooctadecahydrocyclopropa[e]pyrrolo[1,2-a][1,4]diazacyclopentadecine-14a-carboxamide] | < 50 | > 5 | > 5 | 0.5 to 1 | 0.5 to 1 |
| Cc1cc(C(=O)N[C@H]2CCCCCC(F)(F)C[C@@H]3C[C@@]3(C(=O)NS(=O)(=O)C3CC3)NC(=O)[C@@H]3C[C@@H](Oc4nc5ccccc5nc4-c4nc5ccccc5s4)CN3C2=O)no1 [Example 14, N-((2R,6S,13aS,14aR,16aS)-2-(3-(benzo[d]thiazol-2-yl)quinoxalin-2-yloxy)-14a-(cyclopropylsulfonylcarbamoyl)-12,12-difluoro-5,16-dioxooctadecahydrocyclopropa[e]pyrrolo [1,2-a][1,4]diazacyclopentadecin-6-yl)-5-methylisoxazole-3-carboxamide] | < 50 | 2 to 5 | 1 to 2 | 0.1 to 0.5 | 0.1 to 0.5 |
| CC(C)(C)OC(=O)N[C@H]1CCCCCC(F)(F)C[C@@H]2C[C@@]2(C(=O)NS(=O)(=O)C2CC2)NC(=O)[C@@H]2C[C@@H](Oc3nc4ccccc4c4ccccc34)CN2C1=O [Example 19, tert-butyl (2R,6S,13aS,14aR,16aS)-14a-(cyclopropylsulfonylcarbamoyl)-12,12-difluoro-5,16-dioxo-2-(phenanthridin-6-yloxy)octadecahydrocyclopropa[e]pyrrolo[1,2-a][1,4]diazacyclopentadecin-6-ylcarbamate] | > 100 | < 1 | < 1 | < 0.1 | < 0.1 |
